This passage reports inhibition and IC50 results from US20260356824A1, “COMPOUNDS FOR TREATING FIBROTIC DISEASES” (Meta-Immue Inc., priority 2023, published 2026).

In data set [1] the target is T1, BSEP (Homo sapiens, UniProt O95342).
T1 construct: ATP-dependent uptake of radiolabelled probe substrate
The experiment in a line: Bile Salt Export Pump (BSEP) Assay, Sf9 insect cell vesicles expressing BSEP. It is filed as in vitro ADME. Conditions: 10 μM test compound, probe substrate 1 μM [3H]-taurocholic acid, 15 min incubation. Here is the method: • 1. A stock solution was prepared with the test article (Sponsor compound) in DMSO. • 2. All final assay solutions of probe substrate, reference inhibitor or test article contain 0.5% (v/v) DMSO (vehicle control). • 3. Test article concentrations in transport study were specified in the Summary Table of Experimental Conditions of this protocol.
• 1. Bovine Serum Albumin (BSA) • 2. Dimethyl sulfoxide (DMSO) • 3. BSEP Assay Uptake Buffer (10 mM HEPES-Tris pH 7.4, 0.1 M KNO3, 12.5 mM Mg(NO3)2, 50 mM sucrose) • 4. BSEP Wash Buffer (10 mM Tris-HCl pH 7.4, 0.1 M KNO3, 50 mM sucrose) • 5. BSEP Blocking Buffer (BSEP Wash Buffer+0.5 mg/mL BSA) • 6. 25 mM Mg-ATP solution • 7. 25 mM AMP solution • 8. Corning Costar 96-well flat-bottom, untreated, white Assay Plate (Corning Cat. No. 3912) • 9. Millipore MultiscreenHTs Filtration Plate, glass fiber FB—1.0/0.65 μm (Cat. No. MSFBN6B10 or glass fiber FC—1.2/0.65 μm (Cat. No. MSFCN6B10) • 10. Millipore MultiscreenHTS Vacuum Manifold (Cat. No. MSVMHTS00) • 11. Probe substrates listed in Table 1 • 12. Reference inhibitors listed in Table 1 • 13. Test articles
• 1. Test system: • a. 96-well flat bottom plate containing a suspension of vesicles and a corresponding 96-well glass fiber filtration plate. • b. Transport experiments were conducted in the Assay Uptake Buffer. • c. Transport experiment was initiated with the addition of Mg-ATP or AMP to appropriate wells. • d. Each condition was run in triplicate wells. • 2. Prepared the 96-well flat-bottom assay plate. • a. Incubated the assay plate with the Blocking Buffer for 60 min at 37 °C with orbital shaking at approximately 90 rpm. (NOTE: This is done to prevent non-specific binding of vesicles to polystyrene assay plate). • b. After 60 min, completely removed the Blocking Buffer from the assay plate. • c. The Assay Uptake Buffer solutions were added to the assay plate wells as follows: • i. For probe substrate transport assays, the Assay Uptake Buffer contained vesicles and the probe substrate at the specified concentration. • ii. For the reference inhibition assay, the Assay Uptake Buffer contained vesicles, the reference inhibitor and the probe substrate at the specified concentration in Table 1. • iii. For the test article assays, Assay Uptake Buffer contained vesicles, the test article and the probe substrate at the specified concentration in Table 1. • 3. Incubate at 37 °C with orbital shaking at approximately 90 rpm for the time period specified in Table 1 of this protocol. • 4. Using the 25 mM Mg-ATP or AMP stocks, Mg-ATP or AMP was added to test wells of flat bottom assay plate to a final concentration of 5 mM. • 5. Incubated at 37 °C with orbital shaking at approximately 90 rpm for the incubation time specified in Table 1 of this protocol. • 6. Prepared the 96-well glass fiber filtration plate: • a. Incubated the filtration plate with the Blocking Buffer for 2 min at room temperature with under no vacuum. • b. Turned on vacuum and allowed Blocking Buffer to filter through plate. • c. With vacuum on, filter plate was washed with ice cold Wash Buffer. • 7. At the end of the specified incubation time indicated in […] of this protocol, vesicle transport was quenched by adding ice cold Wash Buffer to samples in 96-well assay plate. • 8. Mixed assay samples (now diluted in Wash Buffer) with pipette and transfered 175 μL into the 96-well glass fiber filtration plate to separate vesicles from buffer by applying vacuum. • 9. Washed filter plate wells with ice cold Wash Buffer. • 10. Allowed filter plate to dry under vacuum. • 11. Transfered filters to scintillation sample plate and added 700 μL of scintillation fluid to the above samples. • 12. Counted the above samples on a 1450 Microbeta (Perkin-Elmer).
• 1. The amount of substrate was quantified with radiometric detection on a 1450 Microbeta (Perkin-Elmer). • 2. For transport study samples run in triplicate, the mean and standard deviation of the replicates were reported. • 3. […]

In data set [2] the target is T2, hLPAR1 (Homo sapiens, UniProt Q92633).
T2 construct: expressed in transfected cells
T2 sequence (Q92633 whole entry): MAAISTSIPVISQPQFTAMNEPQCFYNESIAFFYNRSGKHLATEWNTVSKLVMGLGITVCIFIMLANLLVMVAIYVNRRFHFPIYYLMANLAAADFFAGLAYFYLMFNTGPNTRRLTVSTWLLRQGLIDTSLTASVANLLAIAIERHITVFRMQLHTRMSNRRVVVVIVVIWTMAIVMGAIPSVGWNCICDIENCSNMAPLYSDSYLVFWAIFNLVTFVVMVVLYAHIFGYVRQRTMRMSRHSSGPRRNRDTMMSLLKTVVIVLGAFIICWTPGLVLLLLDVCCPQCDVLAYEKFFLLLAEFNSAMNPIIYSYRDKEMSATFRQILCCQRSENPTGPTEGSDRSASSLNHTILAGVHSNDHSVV
The experiment in a line: Ca2+ Flux Assay (B103 cells stably expressing hLPAR1). Type of data set: cell-based. Conditions: LPA-induced calcium release, Fura-2 AM, compound 20 min at RT. On the procedure: B103 cells stably expressing hLPAR1 were seeded at a density of 1.0×10^5 cells per well in clear flat-bottom black 96-well plates and incubated overnight in complete media. The following day, the cells were pre-incubated in serum-free media for 2 hours prior to ensure cellular equilibration. For the loading a calcium-sensitive fluorescent dye, the cells were treated with a concentration of 5 μM Fura-2 AM dye (Sigma, F1225) in Hank's buffered salt solution (HBSS) supplemented with 20 mM HEPES, […], and 0.3% fatty-acid-free bovine serum albumin for 40 minutes at room temperature (RT). Test compounds, prepared in DMSO, were then added to each well and incubated for 20 minutes at RT. To induce calcium release, a concentration of […] in HBSS supplemented with 20 mM HEPES, and 0.3% fatty-acid-free bovine serum albumin was introduced. Intracellular calcium mobilization was subsequently quantified by monitoring the fluorescence intensity using the Spark® multimode microplate reader (TECAN).
In general terms: Calcium flux is commonly read through the fluorescence of an indicator in the cells.

For data set [3], the system named is A2058 cells. The data set can be described thus: Chemotaxis Assay (LPA-induced migration of A2058 cells). Type of data set: cell-based. Particulars: Homo sapiens, 4 to 8 hours, crystal violet 590 nm. On the procedure:
For monitoring the migration of cells, Neuroprobe ChemoTx® System plates ([…], 5.7 mm diameter sites; Gaithersburg, MD, USA) were utilized. To induce cell migrations, a concentration of […] or vehicle in DMEM were loaded to the bottom chamber. A total of 15,000 A2058 cells, which were starved for 24 hr following treated with test compounds or vehicle, were then applied to the upper membrane coated with 0.001% fibronectin. The plate was incubated for 4 to 8 hours to allow cell migration. Following incubation, the plate was dissembled, and the migrated cells were visualized by crystal violet staining. The stained area with crystal violet was quantified by measuring the absorbance at 590 nm and the relative percentage of the control was calculated.

Each structure is given as a SMILES string. Some results are limits rather than exact numbers.

T1 sequence (O95342 whole entry): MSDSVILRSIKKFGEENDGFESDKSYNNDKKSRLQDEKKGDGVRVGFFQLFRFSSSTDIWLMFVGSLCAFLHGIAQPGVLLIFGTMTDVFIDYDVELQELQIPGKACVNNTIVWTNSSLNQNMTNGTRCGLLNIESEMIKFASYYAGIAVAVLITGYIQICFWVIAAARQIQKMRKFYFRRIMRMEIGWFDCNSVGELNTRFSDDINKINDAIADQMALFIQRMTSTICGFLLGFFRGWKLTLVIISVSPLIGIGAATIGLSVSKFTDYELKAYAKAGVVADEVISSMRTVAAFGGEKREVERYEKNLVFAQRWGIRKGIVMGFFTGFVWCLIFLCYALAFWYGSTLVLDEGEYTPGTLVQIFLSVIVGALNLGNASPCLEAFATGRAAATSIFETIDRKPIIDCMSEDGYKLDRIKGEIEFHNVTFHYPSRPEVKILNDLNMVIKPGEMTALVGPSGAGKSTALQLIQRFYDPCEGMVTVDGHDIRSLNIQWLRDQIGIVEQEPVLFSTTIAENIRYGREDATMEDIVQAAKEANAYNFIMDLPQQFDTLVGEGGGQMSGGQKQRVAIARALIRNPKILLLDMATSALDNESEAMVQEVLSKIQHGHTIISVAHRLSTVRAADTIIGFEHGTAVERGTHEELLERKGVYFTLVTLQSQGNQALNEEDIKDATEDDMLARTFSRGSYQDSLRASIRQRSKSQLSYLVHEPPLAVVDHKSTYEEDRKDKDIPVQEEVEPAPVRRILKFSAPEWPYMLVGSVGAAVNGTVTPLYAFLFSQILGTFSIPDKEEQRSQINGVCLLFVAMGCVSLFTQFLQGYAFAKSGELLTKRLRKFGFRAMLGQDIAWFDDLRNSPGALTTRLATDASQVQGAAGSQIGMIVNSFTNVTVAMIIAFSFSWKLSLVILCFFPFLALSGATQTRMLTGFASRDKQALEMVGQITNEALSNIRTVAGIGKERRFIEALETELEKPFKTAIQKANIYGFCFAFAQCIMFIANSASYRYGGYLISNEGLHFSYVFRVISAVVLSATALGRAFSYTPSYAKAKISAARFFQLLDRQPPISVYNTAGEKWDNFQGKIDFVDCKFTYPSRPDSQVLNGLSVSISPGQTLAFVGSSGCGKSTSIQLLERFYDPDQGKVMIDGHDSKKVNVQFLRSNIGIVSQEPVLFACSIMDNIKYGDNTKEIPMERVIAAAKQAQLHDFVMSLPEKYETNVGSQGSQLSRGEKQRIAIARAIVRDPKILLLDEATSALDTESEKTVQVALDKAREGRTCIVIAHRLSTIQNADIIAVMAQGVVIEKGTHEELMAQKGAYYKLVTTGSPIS

Regarding `COc1ccc(C2CCN(c3ccc(C4(C(=O)O)CC4)cc3)CC2)c(NC(=O)O[C@H](C)c2ccccc2)c1` [Compound 19, (R)-1-(4-(4-(4-methoxy-2-(((1-phenylethoxy)carbonyl)amino)phenyl)piperidin-1-yl)phenyl)cyclopropane-1-carboxylic acid], in data set [1], the inhibition (as a rule, the drop in the measured response relative to a control, in per cent) at 0.25 h, 10 µM was 50 to 75%. The IC50 – broadly, the concentration that inhibits the measured activity by half – in data set [2] was under 10 nM; in data set [3], under 100 nM.

For the compound `Cc1noc(C2CCN(c3ccc(C4(C(=O)NS(=O)(=O)CC(C)CO)CC4)cc3)CC2)c1NC(=O)O[C@H](C)c1ccccc1` (stereo partly drawn) [Compound 79, (1R)-1-phenylethyl N-{5-[1-(4-{1-[(3-hydroxy-2-methylpropanesulfonyl)carbamoyl]cyclopropyl}phenyl)piperidin-4-yl]-3-methyl-1,2-oxazol-4-yl}carbamate], the inhibition at 0.25 h, 10 µM in data set [1] lay within 25 to 50%. The half-inhibitory concentration (IC50) in data set [2] was under 10 nM; in data set [3] it was under 100 nM.

With `C[C@@H](OC(=O)Nc1c(C2CCN(c3ccc(C4(C(=O)NS(=O)(=O)CCC(=O)O)CC4)cc3)CC2)nnn1C)c1ccccc1` [Compound 17], the inhibition at 0.25 h, 10 µM in data set [1] was at most 25%. Further, the results for the IC50 in data set [2] and in data set [3] were under 10 nM and 500 to 5000 nM, respectively.

For the compound `CCc1ccccc1[C@@H](C)OC(=O)Nc1c(C)noc1C1CCN(c2ccc(C3(C(=O)NS(=O)(=O)CCC(=O)O)CC3)cc2)CC1` [Compound 37, 3-({[1-(4-{4-[4-({[(1R)-1-(2-ethylphenyl)ethoxy]carbonyl}amino)-3-methyl-1,2-oxazol-5-yl]piperidin-1-yl}phenyl)cyclopropyl]formamido}sulfonyl)propanoic acid], the inhibition at 0.25 h, 10 µM in data set [1] was in the range of 50 to 75%. Moreover, the IC50 was under 10 nM in data set [2] and under 100 nM in data set [3].

Take `Cc1noc(C2CC3(C2)CN(c2ccc(C4(C(=O)O)CC4)cc2)C3)c1NC(=O)O[C@H](C)c1ccccc1` [Compound 54, 1-(4-{6-[3-methyl-4-({[(1R)-1-phenylethoxy]carbonyl}amino)-1,2-oxazol-5-yl]-2-azaspiro[3.3]heptan-2-yl}phenyl)cyclopropane-1-carboxylic acid]: the inhibition at 0.25 h, 10 µM in data set [1] was in the range of 25 to 50%. Also, the half-maximal inhibitory concentration (IC50) was 10 to 200 nM in data set [2] and under 100 nM in data set [3].

In the case of `Cc1noc(C2CCN(c3ccc(C4(C(=O)O)CC4)cc3)CC2)c1NC(=O)O[C@H](C)c1ccccc1Cl` [Compound 74, 1-(4-{4-[4-({[(1R)-1-(2-chlorophenyl)ethoxy]carbonyl}amino)-3-methyl-1,2-oxazol-5-yl]piperidin-1-yl}phenyl)cyclopropane-1-carboxylic acid], in data set [1], the inhibition at 0.25 h, 10 µM was in the range of 50 to 75%. Further, the half-maximal inhibitory concentration (IC50) in data set [2] was under 10 nM; in data set [3] it was under 100 nM.

Consider `C[C@@H](OC(=O)Nc1c(C2CCN(c3ccc(C4(C(=O)NS(=O)(=O)CC(=O)O)CC4)cc3)CC2)nnn1C)c1ccccc1` [Compound 58, 2-[[1-[4-[4-[1-methyl-5-[[(1R)-1-phenylethoxy]carbonylamino]triazol-4-yl]-1piperidyl]phenyl]cyclopropanecarbonyl]sulfamoyl]acetic acid], for which the inhibition at 0.25 h, 10 µM in data set [1] was at most 25%. The results for the IC50 in data set [2] and in data set [3] were 10 to 200 nM and 100 to 500 nM, respectively.

On to `Cc1nsc(C2CCN(c3ccc(C4(C(=O)O)CC4)cc3)CC2)c1NC(=O)O[C@H](C)c1ccccc1` [Compound 95], for which the inhibition at 0.25 h, 10 µM in data set [1] is 25 to 50%. In addition, the half-maximal inhibitory concentration (IC50) in data set [2] lay within 10 to 200 nM; in data set [3] it was 100 to 500 nM.

`Cc1noc(C2CC3(C2)CN(c2ccc(C4(C(=O)NS(=O)(=O)CCCO)CC4)cc2)C3)c1NC(=O)O[C@H](C)c1ccccc1` [Compound 52]: the concentration for half-maximal inhibition (IC50) in data set [2] was under 10 nM; in data set [3] it was under 100 nM.

With `Cc1noc(C2CCN(c3ccc(C4(C(=O)NS(C)(=O)=O)CC4)cc3)CC2)c1NC(=O)O[C@H](C)c1ccccc1Cl` [Compound 11], the values for the half-maximal inhibitory concentration (IC50) in data set [2] and in data set [3] were 10 to 200 nM and 100 to 500 nM, respectively.

Regarding `Cc1noc(C2CCN(c3ccc(C4(C(=O)O)CC4)cc3)CC2)c1NC(=O)[C@H](O)c1ccccc1` [Compound 32], the IC50 in data set [2] was 200 to 3000 nM; in data set [3] it was at least 5000 nM.

In the case of `Cc1nsc(C2CCN(c3ccc(C4(C(=O)O)CC4)cc3)CC2)c1NC(=O)O[C@H](C)c1ccccc1Cl` [Compound 42], the IC50 in data set [2] was 10 to 200 nM; in data set [3] it was under 100 nM.

Turning to `Cc1noc(C2CCN(c3ccc(C4(c5nnn[nH]5)CC4)cc3)CC2)c1NC(=O)O[C@H](C)c1ccccc1` [Compound 88, [(1R)-1-phenylethyl]N-[3-methyl-5-[1-[4-[1-(1H-tetrazol-5-yl)cyclopropyl]phenyl]-4-piperidyl]isoxazol-4-yl]carbamate], the IC50 in data set [2] is under 10 nM; in data set [3], under 100 nM.

As for `C[C@@H](OC(=O)Nc1c(C2CCN(c3ccc(C4(C(=O)NS(=O)(=O)C5(C(=O)O)CC5)CC4)cc3)CC2)nnn1C)c1ccccc1Cl` [Compound 39, 1-[[1-[4-[4-[5-[[(1R)-1-(2-chlorophenyl)ethoxy]carbonylamino]-1-methyl-triazol-4-yl]-1-piperidyl]phenyl]cyclopropanecarbonyl]sulfamoyl]cyclopropanecarboxylic acid], the half-maximal inhibitory concentration (IC50) in data set [2] was under 10 nM; in data set [3], under 100 nM.

Take `Cc1noc(C2CC3(C2)CN(c2ccc(C4(C(=O)NS(=O)(=O)CCC(=O)O)CC4)cc2)C3)c1NC(=O)O[C@H](C)c1ccccc1` [Compound 50]: the half-maximal inhibitory concentration (IC50) in data set [2] is under 10 nM; in data set [3], under 100 nM.

Regarding `Cc1noc(C2CCN(c3ccc(C4(C(=O)OCc5oc(=O)oc5C)CC4)cc3)CC2)c1NC(=O)O[C@H](C)c1ccccc1` [Compound 14], the half-inhibitory concentration (IC50) in data set [2] is under 10 nM; in data set [3], under 100 nM.

Consider `C[C@@H](OC(=O)Nc1c(C2CCN(c3ccc(C4(C(=O)NS(=O)(=O)C5(C(=O)O)CC5)CC4)cc3)CC2)nnn1C)c1ccccc1` [Compound 57, 1-[[1-[4-[4-[1-methyl-5-[[(1R)-1-phenylethoxy]carbonylamino]triazol-4-yl]-1-piperidyl]phenyl]cyclopropanecarbonyl]sulfamoyl]cyclopropanecarboxylic acid], for which the figures for the 50% inhibitory concentration (IC50) in data set [2] and in data set [3] were under 10 nM and under 100 nM, respectively.
